Measured values reported in patent US20200254110A1, “LIGAND-CONJUGATES AND METHODS FOR TARGETED RECEPTOR-MEDIATED CELLULAR UPTAKE” (priority 2017, published 2020).
Ends that are not written are not given here.

Experiments:
[1] = tested on: PAR2 expressing keratinocytes (HaCaT); test: PAR2 mediated endocytosis assay (fluorescence microscopy); assay type: cell-based, human; settings: keratinocytes serum-starved 24 h, 2 h incubation, FIG. 5
Method: SOP: PAR2 Mediated Endocytosis Assay • Culture HaCaT (cultured human keratinocytes) cells in DMEM (Dulbecco's Modified Eagle Medium, phenol red free!) supplemented with 10% (w/v) FCS and antibiotics (gentamicin: 50 μg/mL final conc.) in a 10 cm cell culture plate at a confluency (one cell layer on the plate) of 60-70% • Count the cells and dilute to 1-2×10^4 cells/mL in DMEM (phenol red free!) • Incubate 1 mL of the diluted cell suspension in each well of a 24-well cell culture plate supplemented with 10% (w/v) FCS (containing gentamicin at a final conc. of 50 μg/mL) on a glass coverslip for 24 h at 37° C., 5% CO2 • Discard the supernatant and carefully wash the cells 3 times with 500 μL DMEM (phenol red free, without FCS!) • Incubate the cells for 24 h at 37° C., 5% CO2 (DMEM without serum addition, phenol red free only!) • Add CaCl2 solution to reach a final concentration of 1.5 mM in the medium when using Ca^2+-free medium (induction of cell differentiation) • For PAR2 activation […]
An endocytosis assay was used to test whether the PAR ligand-conjugate, i.e. PAR2 agonist P8 enhances the uptake of IONPs into PAR, here PAR2 expressing keratinocytes, when immobilized to the surface of the IONP. […] After the incubation, cells were washed thoroughly for several times and internalization of the modified IONPs was analyzed employing fluorescent microscopy (FIG. 5, lower right corner). […]

[2] = biological target: T1, PAR2-expressing HEK293 (human embryonic kidney) cells (Homo sapiens, UniProt P55085); test: Intracellular Ca2+ mobilization assay (Indo-1 AM, flow cytometry); assay type: cell-based; settings: for shift in relative fluorescence intensity (RFI) of the cells relative to the untreated sample (PAR2 activation, intracellular calcium mobilization): HEK293 cells preincubated with Indo-1 AM, P6 100-200 μM, P8 200-400 μM, flow cytometry; for relative potential of PAR2 activation (rank order): HEK293 cells, calcium mobilization, FIG. 4 A-C
T1 construct: PAR2-expressing HEK293 (human embryonic kidney) cells; endogenous in cells; host or cells: HEK293
T1 sequence (P55085 26-397): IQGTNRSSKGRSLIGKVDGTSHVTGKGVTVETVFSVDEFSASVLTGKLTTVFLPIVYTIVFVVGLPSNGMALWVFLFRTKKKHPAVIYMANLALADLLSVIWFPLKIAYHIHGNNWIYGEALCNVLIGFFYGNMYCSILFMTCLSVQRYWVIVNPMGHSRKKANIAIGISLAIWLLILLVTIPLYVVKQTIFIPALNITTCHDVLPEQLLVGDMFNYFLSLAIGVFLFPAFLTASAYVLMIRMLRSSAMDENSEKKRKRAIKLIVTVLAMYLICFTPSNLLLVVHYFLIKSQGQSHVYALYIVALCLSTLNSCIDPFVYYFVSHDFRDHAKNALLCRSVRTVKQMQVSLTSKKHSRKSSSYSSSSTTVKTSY
Excerpt: To test whether the modified PAR ligands such as the synthesis intermediates as well as the final compound P8 are capable of binding and activating PAR in vitro a calcium-based cell activation assay was established on the basis of the assay for measurement of intracellular Ca^2+ mobilization described in Kelm et al., J. Exp. Med. 195 (2002), 1207-1213, which can be used directly on PAR, i.e. PAR2 expressing cells.
SOP: Measurement of Intracellular Ca^2+ Mobilization • Thaw 1 aliquot of frozen (from liquid N2) HEK293 cells (careful at RT) • Provide 10 mL of DMEM (Dulbecco's Modified Eagle Medium, phenol red free!) containing 10% FCS, antibiotics (50 μg/mL gentamicin final conc.) on a 10 cm cell culture plate • Add cells to the plate and grow them at 37° C., 8% CO2 until 60-70% confluency (one cell layer on the plate) • Wash the cells 3× with 10 mM PBS (phosphate buffer saline), pH 7.4 • Add 10 mL of fresh DMEM (phenol red free!) and carefully resuspend the cells • Count the cells employing a flow cytometer and dilute to 3×10^5 cells/mL in DMEM (phenol red free!) • Pipette 1 ml of the diluted cell suspension in each well of a 24-well cell culture plate • Add 30 μL of Pluronic® F-127 (0.01% (v/v) final conc., P2443 Sigma-Aldrich) and 15 μL of Indo 1-AM ester in DMSO (15 μM final conc., I3261 Sigma-Aldrich) to the cell suspension • Incubate for 45 min at 37° C., 8% CO2, in the dark • Henceforward keep the cells in the dark • Remove cells from the culture plate and subsequently wash 1× with 15 mL of HEPES buffer (100 mM HEPES, pH 7.4) to remove excess Indo 1-AM ester and resuspend cells in 1 mL HEPES buffer (100 mM HEPES, pH 7.4) • Add 10 μL propidium iodide (PI: final conc. 100 ng/mL, P4864 Sigma-Aldrich) to the cell suspension and immediately perform flow cytometry analysis • Perform flow cytometry analysis using the appropriate laser/filter sets (CyFlow® Cube 8 Sysmex):
Indo 1-AM: λexcitation,max 345 nm, λemission,max 400 nm (Ca^2+ bound), λemission,max 475 nm (Ca^2+ free), (excitation: UV-LED, emission: FL4 channel, 455/50 nm)
PI: λexcitation,max 535 nm (DNA-bound), λemission,max 617 nm (DNA-bound), (excitation: 488 nm laser, emission: FL2 channel, 590/50 nm) • For PAR-2 activation, add the appropriate amount of activator (SLIGRL: 50 μM final conc., trypsin: 40 Units (TRYPSEQM-RO Roche), P6 or P8: 100-200 μM or 200-400 μM respectively) to the cell suspension (containing 15 nmol Indo 1-AM ester) and immediately perform flow cytometry analysis • Determine the decrease in relative fluorescence intensity (due to the shift from unbound towards calcium bound Indo 1-AM complexes) after PAR mediated activation of HEK293 cells
As described above, activation of PARs leads to the initiation of a variety of signal transduction pathways and downstream signaling. One consequence of PAR activation presents the intracellular calcium mobilization from storage reservoirs of the endoplasmic reticulum (ER) and mitochondria into the cytosol. […] In the present assay the Indo-1 AM fluorophore was used, which is an esterified derivative of Indo-1 and thus able to penetrate the cell membrane. Upon uptake into the cytoplasm, present esterases will transfer the ester into the carboxylate, which is then trapped in the cell due to its obtained negative charges. A shift in Indo-1 AM emission from 480 nm (calcium free Indo-1 AM) to 400 nm (calcium bound Indo-1 AM) can be detected employing a flow cytometer, when bound to free calcium. […]

PAR2 = biological target: T2, PAR2 (Homo sapiens, UniProt P55085); settings: PAR2 agonist peptide, reference [1]; cited from earlier work
T2 sequence (P55085 26-397): T1 sequence (P55085 26-397)

Row | Substance | uptake (internalization) into cultured keratinocytes [1] | shift in relative fluorescence intensity (RFI) of the cells relative to the untreated sample (PAR2 activation, intracellular calcium mobilization) [2] | relative potential of PAR2 activation (rank order) [2] | effectiveness relative to SLIGRL-NH2 (PAR2)
1 | P8 modified IONPs (SLIGRL; not fully specified (C-terminus); also: P8 modified IONPs (on iron oxide nanoparticles)) | successful uptake |  |  | 
2 | Fam5/6-Lysine-DEG-SLIGRL [P8] |  | induced a shift in relative fluorescence intensity | decreased from SLIGRL-NH2, to P6 and further to P8 | 
3 | 2-furoyl(1)L(2)IG(4)RL(6)-NH2 |  |  |  | 10-20 fold
4 | SerLeuIleGlyArgLeu-NH2 (SLIGRL-NH2) [PAR2 agonist hexapeptide, native tethered ligand of rodent PAR2, reference compound] |  |  | decreased from SLIGRL-NH2, to P6 and further to P8 | 
5 | NH2-DEG-SLIGRL [P6] |  | induced a shift in relative fluorescence intensity | decreased from SLIGRL-NH2, to P6 and further to P8 | 
